Data on one molecule can be found in ChEMBL document CHEMBL5365457, “Selective HDAC3 Inhibitors with Potent In Vivo Antitumor Efficacy against Triple-Negative Breast Cancer” (J Med Chem, 2023).

Active and inactive are the calls of the source. The calls are words filed in the database; no cut-off is given here.

One data set relates to MDA-MB-453. As to the kind of experiment: Cytotoxicity against human MDA-MB-453 cells assessed as inhibition of cell growth incubated for 72 hrs by MTT assay. The class given is functional, cell-based. The settings on record: MDA-MB-453, 72 h.
Data set [1] can be described thus: Half life in Wistar rat at 15 mg/kg, ip measured upto 24 hrs by HPLC analysis. Format: ADME, organism-based. The conditions noted are these: in vivo.
Data set [2] is described as follows: AUC (0 to infinity) in Wistar rat at 5 mg/kg, ip measured upto 24 hrs by HPLC analysis. The class given is ADME, organism-based. More on the design: dose 5 mg/kg, time < 24 hrs, route ip. The settings on record: in vivo.
Data set [3] is described as follows: MRT (0 to infinity) in Wistar rat at 15 mg/kg, ip measured upto 24 hrs by HPLC analysis. The class given is ADME, organism-based. The settings on record: in vivo.
A short description of data set [4]: Apparent oral clearance in Wistar rat at 5 mg/kg, ip measured upto 24 hrs by HPLC analysis. The class given is ADME, organism-based. The conditions noted are these: in vivo.
Data set [5] deals with T1, Protein deacetylase HDAC6 (Homo sapiens, UniProt Q9UBN7).
T1 sequence (Q9UBN7 whole entry): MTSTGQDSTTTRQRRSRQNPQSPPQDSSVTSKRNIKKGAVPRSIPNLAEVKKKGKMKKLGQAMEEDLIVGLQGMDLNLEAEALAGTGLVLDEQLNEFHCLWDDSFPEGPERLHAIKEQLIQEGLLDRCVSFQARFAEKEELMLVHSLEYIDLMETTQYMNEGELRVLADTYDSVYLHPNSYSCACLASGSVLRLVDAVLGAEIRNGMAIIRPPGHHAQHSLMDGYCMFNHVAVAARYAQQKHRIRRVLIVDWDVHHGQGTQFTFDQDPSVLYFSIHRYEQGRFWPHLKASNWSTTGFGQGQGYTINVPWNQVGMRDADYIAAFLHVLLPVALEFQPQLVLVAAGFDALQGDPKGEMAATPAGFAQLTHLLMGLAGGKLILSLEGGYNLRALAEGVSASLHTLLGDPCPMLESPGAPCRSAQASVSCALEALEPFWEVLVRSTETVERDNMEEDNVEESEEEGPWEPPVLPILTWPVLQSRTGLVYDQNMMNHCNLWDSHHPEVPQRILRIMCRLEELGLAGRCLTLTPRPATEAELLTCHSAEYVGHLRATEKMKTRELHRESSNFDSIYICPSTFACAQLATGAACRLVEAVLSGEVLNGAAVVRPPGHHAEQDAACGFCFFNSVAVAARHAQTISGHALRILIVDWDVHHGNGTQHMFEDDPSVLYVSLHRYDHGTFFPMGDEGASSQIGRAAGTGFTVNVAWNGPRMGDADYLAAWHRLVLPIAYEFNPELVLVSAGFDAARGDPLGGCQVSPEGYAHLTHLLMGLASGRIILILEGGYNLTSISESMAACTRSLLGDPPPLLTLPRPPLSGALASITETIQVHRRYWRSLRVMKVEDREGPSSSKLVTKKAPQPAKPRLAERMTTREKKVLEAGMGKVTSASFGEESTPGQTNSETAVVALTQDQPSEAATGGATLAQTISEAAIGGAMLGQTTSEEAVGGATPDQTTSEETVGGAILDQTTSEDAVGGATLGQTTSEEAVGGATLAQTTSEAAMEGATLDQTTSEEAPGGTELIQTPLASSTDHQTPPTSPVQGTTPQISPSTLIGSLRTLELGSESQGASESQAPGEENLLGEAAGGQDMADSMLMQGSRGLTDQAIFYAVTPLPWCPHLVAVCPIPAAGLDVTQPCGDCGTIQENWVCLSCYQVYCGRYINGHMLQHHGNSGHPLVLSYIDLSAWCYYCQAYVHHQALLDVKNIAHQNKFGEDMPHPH
As to the kind of experiment: Inhibition of human recombinant HDAC6 incubated for 10 mins by fluorescence based microplate analysis.

Data set [6] in a line: Selectivity ratio of IC50 for cytotoxicity against human HEK293 cells assessed as inhibition of cell growth to IC50 for cytotoxicity against mouse 4T1 cells assessed as inhibition of cell growth. The class given is toxicity, cell-based. The conditions noted are these: HEK293 cells versus 4T1 cells, read-out: Ratio IC50.
Data set [7] is described as follows: Selectivity ratio of IC50 for cytotoxicity against human HCEC cells assessed as inhibition of cell growth to IC50 for cytotoxicity against human MCF7 cells assessed as inhibition of cell growth. The class given is toxicity, cell-based. The conditions noted are these: HCEC cells versus MCF7 cells, read-out: Ratio IC50.
A short description of data set [8]: Selectivity ratio of IC50 for cytotoxicity against human HCEC cells assessed as inhibition of cell growth to IC50 for cytotoxicity against mouse 4T1 cells assessed as inhibition of cell growth. The class given is toxicity, cell-based. The settings on record: HCEC cells versus 4T1 cells, read-out: Ratio IC50.
Data set [9] has as its system 4T1. In words: Induction of apoptosis in mouse 4T1 cells assessed as increase cytochrome c level by Western blot analysis. The settings on record: dose 1.0 µM. The class given is functional, cell-based.
The subject of data set [10] is 4T1. As to the kind of experiment: Induction of apoptosis in mouse 4T1 cells at 7.72 uM incubated for 72 hrs by annexin/PI staining based flow cytometry analysis (reference value: 1.35%). The class given is functional.
Data set [11] concerns 4T1. As to the kind of experiment: Antitumor activity against mouse 4T1 cells implanted in BALB/c mouse assessed as reduction in tumor volume at 5 mg/kg, ip administered 5 times a week for 21 days (reference value: 52.05+/-13.23 mm3). Format: functional. The settings on record: time 21 day.
Data set [12] can be described thus: Toxicity against BALB/c mouse implanted with mouse 4T1 cells assessed as body weight gain at 5 to 15 mg/kg,ip administered 5 times a week for 21 days. The class given is organism-based. The settings on record: in vivo, 504 h, dose 5-15 mg/kg, time 21 day.
Data set [13] has as its system 4T1. As to the kind of experiment: Antitumor activity against mouse 4T1 cells implanted in BALB/c mouse assessed as tumor growth inhibition at 5 mg/kg, ip measured on day 7. Format: functional. The conditions noted are these: 4T1, 168 h, time 7 day, read-out: TGI.
In data set [14] the test system is 4T1. As to the kind of experiment: Antitumor activity against mouse 4T1 cells implanted in BALB/c mouse assessed as tumor growth inhibition at 5 mg/kg, ip measured on day 21. The conditions noted are these: 4T1, 504 h, time 21 day, read-out: TGI. Format: functional.
For data set [15], the system named is 4T1. As to the kind of experiment: Antitumor activity against mouse 4T1 cells implanted in BALB/c mouse assessed as tumor growth inhibition at 15 mg/kg, ip measured on day 7. The conditions noted are these: 4T1, 168 h, time 7 day, read-out: TGI. Format: functional.
For data set [16], the system named is 4T1. In words: Antitumor activity against mouse 4T1 cells implanted in BALB/c mouse assessed as tumor growth inhibition at 15 mg/kg, ip measured on day 21. Format: functional. The settings on record: 4T1, 504 h, time 21 day, read-out: TGI.
Data set [17] in a line: Toxicity in BALB/c mouse implanted with mouse 4T1 cells assessed as liver damage at 5 to 15 mg/kg, ip measured after 21 days by H and E staining based assay. Format: organism-based. The conditions noted are these: in vivo, 504 h, dose 5-15 mg/kg, time 21 day.
A short description of data set [18]: Toxicity in BALB/c mouse implanted with mouse 4T1 cells assessed as neutrophilic infiltration in kidney at 5 to 15 mg/kg, ip measured after 21 days. Format: organism-based. The settings on record: in vivo, 504 h, dose 5-15 mg/kg, time 21 day.
A short description of data set [19]: Toxicity in BALB/c mouse implanted with mouse 4T1 cells assessed as neutrophilic infiltration in spleen at 5 to 15 mg/kg, ip measured after 21 days. Format: organism-based. The conditions noted are these: in vivo, 504 h, dose 5-15 mg/kg, time 21 day.
Data set [20] relates to 4T1. In words: Antitumor activity against mouse 4T1 cells implanted in BALB/c mouse assessed as reduction in lung metastasis at 5 to 15 mg/kg, ip measured for 7 days by H and E staining based assay. The conditions noted are these: dose 5-15 mg/kg, time 7 day. The class given is functional. Details: scale not given: the % may be the effect or the level left.
The subject of data set [21] is 4T1. As to the kind of experiment: In-vivo inhibition of HDAC3 in BALB/c mouse implanted with mouse 4T1 cells assessed as increase in acetylation of tubulin level at 5 to 15 mg/kg, ip by Western blot analysis. The conditions noted are these: dose 5-15 mg/kg. The class given is functional, organism-based.
Data set [22] concerns 4T1. As to the kind of experiment: Antitumor activity against mouse 4T1 cells implanted in BALB/c mouse assessed as reduction in EGFR protein level in tumor at 5 to 15 mg/kg, ip by Western blot analysis. The class given is functional, organism-based. The settings on record: dose 5-15 mg/kg.

On to `CCCNNC(=O)c1cnc(NCc2ccc(OC)cc2)cn1`, for which the figures for the IC50 (in the data set on MDA-MB-453; in data set [5]) were 1.72 µM and 25.9 µM, respectively. In [1], the half-life is 7.2 h. The same molecule gave an AUC(0-inf) in data set [2] of 4320 ng·h/mL. For the same molecule, in [3], the MRT inf came out at 6.57 h. Further, the CL/F in [4] was 1.15 (mg/kg)/(ug/ml).hr. Moreover, the selectivity ratio in data set [6], in data set [7] and in [8] was 286 throughout. Besides, the Activity entry was “Dose-Dependent Effect” with 4T1 [9]; 46.9% in the data set on 4T1 [10]; 185.23 mm3 with 4T1 [11]; “Non-Toxic” in data set [12]; “Non-Toxic” in [17]; “Non-Toxic” in data set [18]. The Activity entry in data set [19] is “Non-Toxic”; with 4T1 [20], approximately 90%. In addition, the inhibition in vivo at 5 mg/kg in the data set on 4T1 [13] came to 76.2%; in the data set on 4T1 [14], 92.9%. Further, the inhibition in vivo at 15 mg/kg was determined as 84.9% in the data set with 4T1 [15] and 97.9% with 4T1 [16]. For the same molecule, the inhibition entry with 4T1 [21] is “Active”. In addition, the result with 4T1 [22] was Active.
